Assay results published in patent publication US12630521B2, “Arylamides and methods of use thereof” (Genzyme Corporation, priority 2019, dated 2026).

How the values were obtained:
[1] = target: T1, human Cystic Fibrosis Transmembrane Conductance Regulator (CFTR) harboring the ΔF508 mutation (Homo sapiens, UniProt P13569, DEL508-508); assay: H441 cell Emax and EC50: HRP-tagged ΔF508-CFTR cell-surface luminescence assay; assay type: cell-based; settings: H441 cells expressing HRP-tagged ΔF508-CFTR, 27° C. for two nights; for EC50: 15-point dose-response; for Emax: NCI-H441, % of maximum VX809 signal
T1 construct: expressed in transfected cells; host or cells: H441 carcinoma cell line (G418 selection)
From the text: Example 36: H441 Cell Emax and EC50
Two cell lines were used, the H441 carcinoma line and the CFHBE41o− (41o−) human bronchial epithelial line. Both cell lines expressed human Cystic Fibrosis Transmembrane Conductance Regulator (CFTR) harboring the ΔF508 mutation and with an in-frame fusion in CFTR extracellular loop 4 of Horse Radish Peroxidase (HRP) under control of the CMV promoter. In the presence of the HRP tag, ΔF508-CFTR transported to the cell surface was detectable upon addition of an HRP substrate (Luminata Forte). Both cell types were cultivated at 37° C. with CO2.
For both cell types, the medium was changed every other day unless the culture was at low % confluence. Cells were used for the assays at ˜75% confluence.
DMSO/Compound Dilutions Plate for 15-Point Dose-Response Testing
To a polypropylene (PP) 384-well plate, 15 μls DMSO was added to all wells in columns 1-22 and 24 (low Control). 15 μls of 260 μM VX809 (Lumacaftor), Selleckchem S1565, was added to column 23 wells (high Control). 15 μls of 10 mM test compound or VX809 (control) were added to wells of row A. Serial dilutions of Row A compound were performed 2×15 μls in rows A through 0 (15-point).
A PP, 384-well plate containing the appropriate cell culture medium was prepared for each assay plate with 100 μls per well. For the doxycycline-induced 41o− cells, doxycycline for both the assay plate and the medium dilution plate was added at 0.0005 mg/ml to the medium.
Both cell lines were plated for the assay at 30 μls per 384-well at 3.4×10^e5 cells per ml (˜10K cells/well). H441 cells were plated on opaque, white, Corning plate 3704. 41o− cells were plated on collagen-coated opaque, white, Corning plate 356665. For 41o− cells, doxycycline was added to the medium.
Compound Addition/Assay Incubation
Using FX (Beckman) protocol, 10 μls diluted compound or medium was added per well to the Assay Plate as: 2 μls DMSO Dilution plate well is diluted in 100 μls of the Medium Dilution Plate well, mixed, and 10 μls is transferred to the Assay Plate.
The final assay dilution series is 24.5, 12.3, 6.1, 3.1, 1.5, 0.8, 0.4, 0.2, 0.1, 0.05, 0.02, 0.01, 0.006, 0.003, 0.001 and 0 μM. The 41o− assay plates were incubated at 37° C. w/CO2, the H441 assay plates were incubated at 27° C. w/CO2, each overnight for two nights.
Assay Result Determination
After being brought to room temperature, the assay plate liquid was removed. 30 uls of Luminata Forte (Millipore ELLUF0100) was added per well and incubated at room temperature for 10 min. The plates were then read on a Topcount, protocol LumiMatti (CPS, luminescence). The data was analyzed for % of maximum, maximum VX809 signal, and EC50 using Pearl and SPEED tools.

[2] = target: T2, CFTR (ΔF508 homozygous CF-HBE cells) (Homo sapiens, UniProt P13569, DEL508-508); assay: TECC24 AUC fold over DMSO @10 uM: CFTR-mediated transepithelial chloride transport in primary CF-HBE cells; assay type: cell-based; settings: 10 μM test agent, 48 hours, forskolin-stimulated IEQ AUC divided by vehicle AUC
T2 construct: Primary human bronchial epithelial cells from a ΔF508 homozygous CF donor; host or cells: primary CF-HBE cells (ΔF508/ΔF508 donor)
Method: Example 37: TECC24 AUC Fold Over DMSO @10 uM
The effects of a test agent on CFTR-mediated transepithelial chloride transport was measured using TECC24 recording analysis. Test agents were solubilized in DMSO. Solubilized test agents were mixed with incubation medium containing DMEM/F12, Ultroser G (2%; Crescent Chemical, catalog #67042), Hyclone Fetal Clone 11(2%; GE Healthcare, catalog #SH30066.02), bovine brain extract (0.25%; Lonza, catalog #CC-4098), insulin (2.5 μg/mL), IL-13 (10 ng/mL), hydrocortisone (20 nM), transferrin (2.5 μg/mL), triiodothyronine (500 nM), ethanolamine (250 nM), epinephrine (1.5 μM), phosphoethanolamine (250 nM), and retinoic acid (10 nM). Primary human bronchial epithelial cells from a ΔF508 homozygous CF donor (CF-HBE cells; from University of North Carolina Cystic Fibrosis Tissue Procurement Center), grown on Transwell HTS 24-well cell culture inserts (Costar, catalog #3378), were exposed to test agents or controls dissolved in incubation medium. The CF-HBE cells were cultured at 36.5° C. for 48 hours before TECC24 recordings were performed in the presence or absence of test agent, a positive control or vehicle (DMSO).
Following incubation, the transwell cell culture inserts containing the test agent or control-treated CF-HBE cells were loaded onto a TECC24 apparatus (TECC v7 or MTECC v2; EP Design) to record the transepithelial voltage (VT) and resistance (TEER) using 4 AgCl electrodes per well configured in current-clamp mode. The apical and basolateral bath solutions both contained (in mM) 140 NaCl, 5 KCl, 2 CaCl2, 1 MgCl2, 10 Hepes, and 10 glucose (adjusted to pH 7.4 with NaOH). To inhibit basal Na+ absorption, the ENaC inhibitor benzamil (10 μM) was added to the bath. Then, the adenylate cyclase activator, forskolin (10 μM), was added to the bath to activate CFTR. The forskolin-stimulated Cl— transport was halted by addition of CFTR inhibitor-172 (20 μM) to the bath at the end of the experiment to confirm specificity. VT and TEER recordings were digitally acquired at routine intervals using TECC or MTECC software (EP Design). VT and TEER were transformed into equivalent transepithelial Cl-current (IEQ), and the Area Under the Curve (AUC) of the IEQ time course between forskolin and CFTR inhibitor-172 addition is generated using Excel (Microsoft). Efficacy is expressed as the ratio of the test agent AUC divided by vehicle AUC. EC50s based on AUC are generated using the non-linear regression log(agonist) vs. response function in Prism software (GraphPad) with Hill Slope fixed=1.
If a test agent increased the AUC of the forskolin-stimulated IEQ relative to vehicle in CF-HBE cells, and this increase was inhibited by CFTR inhibitor-172, then the test agent was considered a CFTR corrector.

T2 sequence (P13569 with tags, fused parts or gaps DEL508-508): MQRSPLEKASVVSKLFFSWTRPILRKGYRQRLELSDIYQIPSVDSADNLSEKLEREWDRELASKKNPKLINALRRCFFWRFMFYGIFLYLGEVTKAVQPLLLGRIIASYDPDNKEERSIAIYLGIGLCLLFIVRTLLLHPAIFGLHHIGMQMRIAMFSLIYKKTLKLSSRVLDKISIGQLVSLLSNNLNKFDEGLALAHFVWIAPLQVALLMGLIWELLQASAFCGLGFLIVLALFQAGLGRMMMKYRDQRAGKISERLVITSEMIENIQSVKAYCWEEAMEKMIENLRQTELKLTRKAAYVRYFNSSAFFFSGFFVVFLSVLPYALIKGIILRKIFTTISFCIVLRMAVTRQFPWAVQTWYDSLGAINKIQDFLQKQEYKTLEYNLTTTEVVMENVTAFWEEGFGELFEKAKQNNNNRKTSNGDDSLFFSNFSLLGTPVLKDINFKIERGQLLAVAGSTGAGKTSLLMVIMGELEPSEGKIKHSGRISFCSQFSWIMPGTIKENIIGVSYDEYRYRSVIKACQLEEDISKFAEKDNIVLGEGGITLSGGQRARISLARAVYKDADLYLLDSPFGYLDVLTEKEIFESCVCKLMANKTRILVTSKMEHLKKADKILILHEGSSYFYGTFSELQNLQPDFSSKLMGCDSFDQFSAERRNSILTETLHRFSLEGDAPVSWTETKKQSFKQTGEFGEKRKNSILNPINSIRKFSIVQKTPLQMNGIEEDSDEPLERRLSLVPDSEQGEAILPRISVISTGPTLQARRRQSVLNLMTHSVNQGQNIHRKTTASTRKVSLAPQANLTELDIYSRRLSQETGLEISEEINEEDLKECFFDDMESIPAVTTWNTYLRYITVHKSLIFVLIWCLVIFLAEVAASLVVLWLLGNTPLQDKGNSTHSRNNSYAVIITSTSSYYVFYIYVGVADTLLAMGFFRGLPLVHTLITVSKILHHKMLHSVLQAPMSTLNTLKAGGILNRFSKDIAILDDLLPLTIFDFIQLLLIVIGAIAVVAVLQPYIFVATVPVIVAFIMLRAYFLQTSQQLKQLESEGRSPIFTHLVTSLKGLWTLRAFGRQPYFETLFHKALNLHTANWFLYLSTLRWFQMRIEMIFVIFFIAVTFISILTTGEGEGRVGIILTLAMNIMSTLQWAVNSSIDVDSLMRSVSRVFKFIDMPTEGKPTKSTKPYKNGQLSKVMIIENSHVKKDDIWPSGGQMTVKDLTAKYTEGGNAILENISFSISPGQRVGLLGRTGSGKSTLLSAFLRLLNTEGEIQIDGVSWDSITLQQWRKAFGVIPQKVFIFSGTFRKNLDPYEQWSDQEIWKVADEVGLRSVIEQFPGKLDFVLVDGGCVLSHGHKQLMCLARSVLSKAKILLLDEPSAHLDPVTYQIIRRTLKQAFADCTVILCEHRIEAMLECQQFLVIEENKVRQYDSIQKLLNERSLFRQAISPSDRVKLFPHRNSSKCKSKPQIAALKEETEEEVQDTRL
T1 sequence (P13569 with tags, fused parts or gaps DEL508-508): as above

Row | SMILES | EC50 [1] [nM] | Emax [1] [%] | TECC24 AUC fold over DMSO [2]
1 | CCC(C)(C)[C@H](NC(=O)c1ccc2sc(C)cc2c1OCc1ccc(C(F)(F)F)cc1)C(=O)O [Compound 33-24, (2S)-3,3-dimethyl-2-(2-methyl-4-((4-(trifluoromethyl)benzyl)oxy)-benzo[b]thiophene-5-carboxamido)pentanoic acid] | 412 | 270 | A (“A” refers to AUC @10 μM > 6)
2 | CCC(C)(C)[C@H](NC(=O)c1ccc2sc(C)c(Cl)c2c1OCc1ccc(C(F)(F)F)cc1)C(=O)O [Compound 33-1, (2S)-2-[[3-chloro-2-methyl-4-[[4-(trifluoromethyl)phenyl]methoxy]benzothiophene-5-carbonyl]amino]-3,3-dimethyl-pentanoic acid] | 647 | 308 | A (“A” refers to AUC @10 μM > 6)
3 | CC(C)(C)[C@H](NC(=O)c1ccc2sccc2c1OCc1ccc(C(F)(F)F)cc1)C(=O)O [Compound 32-9, (2S)-3,3-dimethyl-2-(4-((4-(trifluoromethyl)benzyl)oxy)-benzo[b]thiophene-5-carboxamido)butanoic acid] | 1080 | 193 | C (“C” refers to AUC @10 μM < 4)
4 | Cc1cc2ccc(C(=O)N[C@H](C(=O)O)C(C)(C)C)c(OCc3ccc(OC(F)(F)F)cc3)c2s1 [Compound 33-8, (2S)-3,3-dimethyl-2-(2-methyl-7-((4-(trifluoromethoxy)benzyl)oxy)-benzo[b]thiophene-6-carboxamido)butanoic acid] | 658 | 155 | A (“A” refers to AUC @10 μM > 6)
5 | CC(C)(C)[C@H](NC(=O)c1ccc2sccc2c1OCc1nc2ccccc2s1)C(=O)O [Compound 32-13, (2S)-2-(4-(benzo[d]thiazol-2-ylmethoxy)-benzo[b]thiophene-5-carboxamido)-3,3-dimethylbutanoic acid] | 4120 | 143 | C (“C” refers to AUC @10 μM < 4)
6 | CCC(C)(C)[C@H](NC(=O)c1ccc2sc(OC)cc2c1OCc1ccc(C(F)(F)F)cc1)C(=O)O [Compound 33-14, (2S)-2-(2-methoxy-4-((4-(trifluoromethyl)benzyl)oxy)-benzo[b]thiophene-5-carboxamido)-3,3-dimethylpentanoic acid] | 1980 | 422 | A (“A” refers to AUC @10 μM > 6)
7 | CCc1cc2c(OCc3ccc(C(F)(F)F)cc3)c(C(=O)N[C@H](C(=O)O)C(C)(C)C)ccc2s1 [Compound 33-21, (2S)-2-(2-ethyl-4-((4-(trifluoromethyl)benzyl)oxy)-benzo[b]thiophene-5-carboxamido)-3,3-dimethylbutanoic acid] | 337 | 268 | A (“A” refers to AUC @10 μM > 6)
8 | CC(C)(C)[C@H](NC(=O)c1ccc2sc(Cl)cc2c1OCc1ccc(C(F)(F)F)cc1)C(=O)O [Compound 33-5, (2S)-2-(2-chloro-4-((4-(trifluoromethyl)benzyl)oxy)-benzo[b]thiophene-5-carboxamido)-3,3-dimethylbutanoic acid] | 262 | 251 | A (“A” refers to AUC @10 μM > 6)

Now from value to compound:

Row | EC50 [1] [nM] | Emax [1] [%] | TECC24 AUC fold over DMSO [2] | SMILES
9 | 618 | 151 | A (“A” refers to AUC @10 μM > 6) | Cc1c(Cl)sc2ccc(C(=O)N[C@H](C(=O)O)C(C)(C)C)c(OCc3ccc(C(F)(F)F)cc3)c12 [Compound 35-1, (2S)-2-[[2-chloro-3-methyl-4-[[4-(trifluoromethyl)phenyl]methoxy]-benzothiophene-5-carbonyl]amino]-3,3-dimethyl-butanoic acid]
10 | 532 | 131 | C (“C” refers to AUC @10 μM < 4) | CC(C)c1cc2ccc(C(=O)N[C@H](C(=O)O)C(C)(C)C)c(OCc3ccc(C(F)(F)F)cc3)c2s1 [Compound 33-31, (2S)-2-(2-isopropyl-7-((4-(trifluoromethyl)benzyl)oxy)-benzo[b]thiophene-6-carboxamido)-3,3-dimethylbutanoic acid]
11 | 509 | 106 | A (“A” refers to AUC @10 μM > 6) | Cc1c(Cl)sc2ccc(C(=O)N[C@H](C(=O)O)C3(C)CC3)c(OCc3ccc(OC(F)(F)F)cc3)c12 [Compound 34-5, (S)-2-(2-chloro-3-methyl-4-((4-(trifluoromethoxy)benzyl)oxy)-benzo[b]thiophene-5-carboxamido)-2-(1-methylcyclopropyl)acetic acid]
12 | 678 | 199 | A (“A” refers to AUC @10 μM > 6) | CCC(C)(C)[C@H](NC(=O)c1ccc2sc(C(F)(F)F)cc2c1OCc1ccc(OC(F)(F)F)cc1)C(=O)O [Compound 33-35, (2S)-3,3-dimethyl-2-(4-((4-(trifluoromethoxy)benzyl)oxy)-2-(trifluoromethyl)-benzo[b]thiophene-5-carboxamido)pentanoic acid]
13 | 1190 | 155 | A (“A” refers to AUC @10 μM > 6) | Cc1c(Cl)sc2ccc(C(=O)N[C@H](C(=O)O)C3(C)CCC3)c(OCc3ccc(OC(F)(F)F)cc3)c12 [Compound 34-6, (S)-2-(2-chloro-3-methyl-4-((4-(trifluoromethoxy)benzyl)oxy)-benzo[b]thiophene-5-carboxamido)-2-(1-methylcyclobutyl)acetic acid]
14 | 562 | 130 | A (“A” refers to AUC @10 μM > 6) | CCC(C)(C)[C@H](NC(=O)c1ccc2cc(C(F)(F)F)sc2c1OCc1ccc(C(F)(F)F)cc1)C(=O)O [Compound 33-28, (2S)-3,3-dimethyl-2-(2-(trifluoromethyl)-7-((4-(trifluoromethyl)benzyl)oxy)-[b]thiophene-6-carboxamido)pentanoic acid]
